Assay results: paper PMC4468025 (Biochemical pharmacology, 2015)
Entries after “also recorded” stand apart in the source; their conditions may differ. Where two headings read alike, the source gives them in different places.

What was measured:
PACE4 = details: cited from earlier work
PC5 = details: cited from earlier work
furin = details: Ki values taken from the literature; cited from earlier work
[1] = test system: HT1080 fibrosarcoma cells; test: HT1080 cell migration assay; assay type: cell-based, human; details: for inhibition at 100 µM: Homo sapiens, HT-1080, 24 h, read-out: inhibition of HT1080 cell migration, 100 µM, 24 h
[2] = test system: anthrax toxin (PA + LF) cytotoxicity in RAW264.7 cells; assay type: cell-based, murine
[3] = test system: Golgi furin in CHO-GRAPfurin cells; test: SEAP activity assay in CHO-GRAPfurin cells; assay type: cell-based, Chinese hamster; details: 100 µM, 20–24 h
[4] = test system: Pseudomonas aeruginosa exotoxin A cytotoxicity in CHO DG44 cells; test: Pseudomonas exotoxin A assay; assay type: cell-based, Chinese hamster
PC1/3 = PC1/3 inhibition; assay type: biochemical; details: for inhibition of PC1/3 (in words): 10 µM; for inhibition of PC1/3: 100 µM
[5] = test system: human fibrosarcoma HT1080 cells; details: by inhibiting proMT1-MMP processing; cited from earlier work
Soluble human furin = Soluble human furin (Homo sapiens, UniProt P09958); test: Furin enzyme assay, IC50 and Ki determination
Sequence of Soluble human furin (P09958 108-715 limits assumed): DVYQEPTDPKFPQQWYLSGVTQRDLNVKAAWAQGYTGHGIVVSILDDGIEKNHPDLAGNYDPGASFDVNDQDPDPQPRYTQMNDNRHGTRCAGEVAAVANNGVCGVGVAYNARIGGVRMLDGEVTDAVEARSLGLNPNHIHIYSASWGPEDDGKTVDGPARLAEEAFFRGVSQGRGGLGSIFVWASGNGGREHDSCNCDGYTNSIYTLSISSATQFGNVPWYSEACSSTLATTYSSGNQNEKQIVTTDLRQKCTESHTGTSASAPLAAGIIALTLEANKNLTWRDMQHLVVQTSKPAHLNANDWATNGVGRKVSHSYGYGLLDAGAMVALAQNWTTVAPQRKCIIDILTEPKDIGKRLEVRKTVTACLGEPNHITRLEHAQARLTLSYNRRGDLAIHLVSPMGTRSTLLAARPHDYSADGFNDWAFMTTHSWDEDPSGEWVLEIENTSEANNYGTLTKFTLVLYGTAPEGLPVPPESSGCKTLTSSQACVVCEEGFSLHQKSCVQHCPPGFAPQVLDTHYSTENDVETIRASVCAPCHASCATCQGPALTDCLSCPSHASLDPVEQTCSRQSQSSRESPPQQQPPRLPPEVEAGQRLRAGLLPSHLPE

skin tumor = details: cited from earlier work
[6] = concentration not stated in the sentence (10 and 100 µM tested)

Compound	inhibition of cell migration (in words) ([1]; 100 µM, 24 h)	protection against anthrax toxicity (in words) ([2]; 10 µM inhibitor, 2 h)	protection against anthrax toxicity (in words) [2, 6]	inhibition of intracellular (TGN) furin, SEAP release (in words) [3]	protection against Pseudomonas exotoxin A (in words) [4, 6]	inhibition at 100 µM [1] [%]	protection against anthrax toxicity (in words) ([2]; 100 µM inhibitor, 2 h)	other results
N=C(N)Nc1ccc(OC2CC(Oc3ccc(NC(=N)N)cc3)C(NC(=N)N)CC2NC(=N)N)cc1 (centres unmarked) [compound 1g, 1,1'-(4,6-bis(4-guanidinophenoxy)cyclohexane-1,3-diyl)diguanidine]	did not inhibit cell migration; also recorded: unable to inhibit	complete inhibition of anthrax toxicity	efficiently protected cells against anthrax; also recorded: potently prevented anthrax toxicity	unable to inhibit	only moderate protection; also recorded: modest effect			cross-inhibition of PACE4 (in words) (PACE4): substantial cross-inhibition; cross-inhibition of PC5 (in words) (PC5): substantial cross-inhibition; potency against furin in vitro (in words) (furin): nanomolar potency
N=C(N)Nc1ccc(O[C@@H]2CCC[C@H](Oc3ccc(NC(=N)N)cc3NC(=N)N)C2)c(NC(=N)N)c1 [2e, cis-1,3-bis(2,4-diguanidinophenoxy)cyclohexane]					good protection	20 to 25	excellent protection	inhibition of PC1/3 (in words) (PC1/3): no inhibition detected; inhibition of PC1/3 (PC1/3): 38%
naphthofluorescein disodium salt [B3]								cell mobility and invasiveness of HT1080 cells (in words) [5]: prevented cell mobility and invasiveness
N=C(N)Nc1ccc(OCCCOc2ccc(NC(=N)N)cc2)cc1 [compound 2a, 1,3-bis(4-guanidinophenoxy)propane]	inhibited migration					~40	unable to block anthrax toxicity	
N=C(N)Nc1ccc(Oc2cccc(Oc3ccc(NC(=N)N)cc3)c2)cc1 [compound 2c, 1,3-bis(4-guanidinophenoxy)benzene]	the most potent inhibitor; also recorded: inhibited migration; also recorded: completely inhibited cell mobility							
N=C(N)Nc1ccc(Oc2cccc(Oc3ccc(NC(=N)N)cc3NC(=N)N)c2)c(NC(=N)N)c1 [compound 2f, 1,3-bis(2,4-diguanidinophenoxy)benzene]		almost complete protection; also recorded: complete inhibition of anthrax toxicity	highly efficient protection	only slightly inhibited	good protection	20 to 25	excellent protection	inhibition of furin in vitro (in words) (Soluble human furin): micromolar potency
N=C(N)Nc1ccc(OCCCOc2ccc(NC(=N)N)cc2NC(=N)N)c(NC(=N)N)c1 [2d, 1,3-bis(2,4-diguanidinophenoxy)propane]					good protection		excellent protection	inhibition of HT1080 cell migration ([1]; 100 µM, 24 h): around 40%; inhibition of PC1/3 (in words) (PC1/3): no inhibition detected; inhibition of PC1/3 (PC1/3): 51%
dec-RVKR-CMK								skin tumor progression (in words) (skin tumor): decreases skin tumor progression
N=C(N)Nc1ccc(O[C@@H]2CCC[C@H](Oc3ccc(NC(=N)N)cc3)C2)cc1 [2b, cis-1,3-bis(4-guanidinophenoxy)cyclohexane]	inhibited migration					~40		
N=C(N)Nc1ccc(OC2CC(Oc3ccc(NC(=N)N)cc3NC(=N)N)C(NC(=N)N)CC2NC(=N)N)cc1 (centres unmarked) [compound 1b, 1,1'-(4-((2,4-diguanidino-5-(4-guanidinophenoxy)cyclohexyl)oxy)-1,3-phenylene)diguanidine]	retard tumor cell migration; also recorded: good inhibitors of cell migration; also recorded: inhibited cell migration	complete inhibition of anthrax toxicity	protect cells against Bacillus anthracis (anthrax); also recorded: capable of blocking both Pseudomonas and anthrax toxemia at low doses	block release of a Golgi reporter; also recorded: able to inhibit intracellular furin; also recorded: able to inhibit TGN furin	protect cells against Bacillus anthracis (anthrax) and Pseudomonas aeruginosa intoxication; also recorded: capable of blocking both Pseudomonas and anthrax toxemia at low doses	35		potency against furin in vitro (in words) (furin): nanomolar potency; protection against Pseudomonas exotoxin A (in words) ([4]; 10 µM inhibitor, 20–24 h): completely prevent Pseudomonas toxin cytotoxicity
